Test results taken from patent publication US11584747B2, “Substituted pyridopyrimidinonyl compounds useful as T cell activators” (BRISTOL-MYERS SQUIBB COMPANY, priority 2019, dated 2023).
pEC50, pIC50: −log10 of the molar value. Like-named read-outs stand apart in the source and are kept apart here.

Experiments:
[1] = target: human DGKζ (Homo sapiens (Human), UniProt Q13574); experiment: DGKζ LIPGLO assay (extruded liposome substrate, ADP-Glo luminescence); type: biochemical
[2] = target: T1, human DGKα (Homo sapiens (Human), UniProt P23743); experiment: DGKα ADPGLO assay (detergent/lipid micelle substrate); type: biochemical
Protocol: DGK Alpha ADPGLO (Truncated) IC50 (uM)
The detergent/lipid micelle was prepared by combining 15 g phosphatidylserine (Avanti 840035P) and 1 g diacylglycerol (8008110) and dissolving into 150 mL chloroform in a 2 L round bottom flask. Chloroform was removed under high vacuum by rotary evaporation. […] The lipid/detergent solution was split into 5 mL aliquots and stored at −80° C.

[3] = system: whole blood (pERK); experiment: pERK Whole Blood; type: cell-based
[4] = system: human venous whole blood (IFN-γ); experiment: Human whole blood IFN-γ assay; type: cell-based
Protocol: Human venous whole blood (22.5 μL per well), obtained from healthy donors, was pre-treated with compounds for one hour at 37° C. in a humidified 95% air/5% CO2 incubator. The blood was stimulated with 2.5 μL anti-human CD3 and anti-CD28 mAb at a final concentration of 1 μg/mL each for 24 hours at 37° C. IFN-γ in the supernatants was measured using AlphLISA kit (Cat #AL217).

[5] = target: T1, human DGKα; experiment: DGKα LIPGLO assay (extruded liposome substrate, ADP-Glo luminescence); type: biochemical; conditions: liposome assay; read-out: DGK alpha LIPGLO IC50
[6] = system: whole blood (pERK); experiment: pERK Whole Blood assay (Table A; no whole-blood pERK method described); type: cell-based; conditions: normalized
[7] = liposome (LIPGLO) assay, read-out: DGK zeta (liposome assay) IC50
[8] = ADPGLO assay, read-out: DGK alpha ADPGLO IC50
[9] = liposome assay, read-out: DGK zeta LIPGLO IC50
[10] = truncated DGK alpha, read-out: DGK alpha ADPGLO (Truncated) IC50
[11] = whole blood, normalized to 3 μM reference compound as 100% activation, read-out: IFN-γ Whole Blood Normalized EC50

T1 sequence (P23743 whole entry, looked up, the tested form may be a part): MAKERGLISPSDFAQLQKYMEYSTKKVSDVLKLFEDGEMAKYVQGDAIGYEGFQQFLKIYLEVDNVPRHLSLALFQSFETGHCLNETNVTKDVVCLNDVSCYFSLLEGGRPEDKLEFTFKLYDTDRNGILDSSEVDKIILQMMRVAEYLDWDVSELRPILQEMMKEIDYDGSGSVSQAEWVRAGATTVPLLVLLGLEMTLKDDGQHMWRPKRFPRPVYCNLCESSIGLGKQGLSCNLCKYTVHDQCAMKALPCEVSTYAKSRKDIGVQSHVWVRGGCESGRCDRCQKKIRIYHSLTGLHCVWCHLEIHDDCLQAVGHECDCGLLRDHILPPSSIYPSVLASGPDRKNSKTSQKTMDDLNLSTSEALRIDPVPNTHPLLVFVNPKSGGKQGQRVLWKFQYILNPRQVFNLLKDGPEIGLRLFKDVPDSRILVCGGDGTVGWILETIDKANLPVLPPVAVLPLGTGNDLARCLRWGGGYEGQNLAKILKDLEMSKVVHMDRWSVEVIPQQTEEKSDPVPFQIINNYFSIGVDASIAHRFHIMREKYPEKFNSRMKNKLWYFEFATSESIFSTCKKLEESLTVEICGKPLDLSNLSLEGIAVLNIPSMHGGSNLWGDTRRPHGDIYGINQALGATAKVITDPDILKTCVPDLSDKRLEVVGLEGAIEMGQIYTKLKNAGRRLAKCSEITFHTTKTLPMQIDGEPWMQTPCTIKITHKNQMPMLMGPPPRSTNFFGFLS
human DGKζ, sequence (Q13574 other isoform, or with tags, fused parts or gaps): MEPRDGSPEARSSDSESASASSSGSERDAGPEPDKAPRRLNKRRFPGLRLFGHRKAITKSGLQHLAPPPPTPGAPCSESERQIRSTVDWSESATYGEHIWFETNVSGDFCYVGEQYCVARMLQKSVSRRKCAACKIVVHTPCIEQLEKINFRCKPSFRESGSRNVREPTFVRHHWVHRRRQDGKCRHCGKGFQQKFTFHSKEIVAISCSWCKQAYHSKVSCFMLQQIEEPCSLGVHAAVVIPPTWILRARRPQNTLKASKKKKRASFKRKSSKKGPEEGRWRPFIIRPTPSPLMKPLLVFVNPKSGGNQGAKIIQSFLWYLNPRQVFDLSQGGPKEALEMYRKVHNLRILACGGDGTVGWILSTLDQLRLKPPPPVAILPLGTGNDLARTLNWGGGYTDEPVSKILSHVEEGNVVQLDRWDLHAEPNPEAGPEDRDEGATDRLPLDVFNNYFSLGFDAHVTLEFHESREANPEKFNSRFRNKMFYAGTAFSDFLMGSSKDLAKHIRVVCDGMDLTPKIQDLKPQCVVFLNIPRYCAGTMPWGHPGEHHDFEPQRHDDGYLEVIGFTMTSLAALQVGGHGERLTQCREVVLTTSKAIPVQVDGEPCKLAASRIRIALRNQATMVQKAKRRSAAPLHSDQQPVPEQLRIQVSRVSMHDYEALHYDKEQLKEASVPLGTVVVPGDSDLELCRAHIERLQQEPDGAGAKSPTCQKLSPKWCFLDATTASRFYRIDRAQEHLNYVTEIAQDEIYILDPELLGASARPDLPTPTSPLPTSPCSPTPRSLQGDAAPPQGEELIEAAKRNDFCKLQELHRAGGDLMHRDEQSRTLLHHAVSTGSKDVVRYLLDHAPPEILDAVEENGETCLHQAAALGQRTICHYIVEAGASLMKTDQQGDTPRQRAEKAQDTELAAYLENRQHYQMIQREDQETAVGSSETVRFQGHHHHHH

## CC[C@@H]1CN(c2nc(=O)n(C)c3ccc(C#N)nc23)[C@@H](C)CN1C(C)c1ccc(C2CCOCC2)cc1 (stereo partly drawn) [Example 330, 4-((2 S,5R)-5-ethyl-2-methyl-4-(1-(4-(tetrahydro-2H-pyran-4-yl)phenyl)ethyl)piperazin-1-yl)-1-methyl-2-oxo-1,2-dihydropyrido[3,2-d]pyrimidine-6-carbonitrile]
[1]; [7]
  pIC50: 5.55
[2]; [8]
  pIC50: 6.19
[3]
  pEC50: 4.96

## CC[C@@H]1CN(c2nc(=O)n(C)c3ccc(C#N)nc23)[C@@H](C)CN1C(c1ccc(F)cc1)c1cccc(C(F)F)n1 (stereo partly drawn) [Example 315, 4-((2 S,5R)-4-((6-(difluoromethyl)pyridin-2-yl)(4-fluorophenyl)methyl)-5-ethyl-2-methylpiperazin-1-yl)-1-methyl-2-oxo-1,2-dihydropyrido[3,2-d]pyrimidine-6-carbonitrile]
[1]; [7]
  pIC50: 6.72
[2]; [8]
  pIC50: 7.59
[3]
  pEC50: 6.57

## CC(c1ccc(C(F)(F)F)cc1)N1C[C@H](CO)N(c2nc(=O)n(C)c3ccc(C#N)nc23)C[C@H]1C (single isomer, unassigned) [Example 406]
[1]; [7]
  pIC50: 4.09
[2]; [8]
  pIC50: 5.71
[3]
  pEC50: 5.15

## CC[C@@H]1CN(c2nc(=O)n(C)c3ccc(C#N)nc23)[C@@H](C)CN1C(c1nc(C2CC2)no1)C(C)C (stereo partly drawn) [Example 365, 4-((2S,5R)-4-(1-(3-cyclopropyl-1,2,4-oxadiazol-5-yl)-2-methylpropyl)-5-ethyl-2-methylpiperazin-1-yl)-1-methyl-2-oxo-1,2-dihydropyrido[3,2-d]pyrimidine-6-carbonitrile]
[1]; [7]
  pIC50: 7.68
[2]; [8]
  pIC50: 7.80
[3]
  pEC50: 5.36

## [2H]C([2H])([2H])n1c(=O)nc(N2C[C@@H](CC)N(C(C)c3ccc(C(F)(F)F)cc3)C[C@@H]2C)c2nc(Cl)ccc21 (single isomer, unassigned) [Example 418]
[1]; [7]
  pIC50: 5.06
[2]; [8]
  pIC50: 7.04
[3]
  pEC50: 4.70

## CCC(c1ccc(OCCC2CC2)cc1)N1C[C@H](C)N(c2nc(=O)n(C)c3ccc(C#N)nc23)C[C@H]1CC (stereo partly drawn) [Example 340, 4-((2S,5R)-4-(1-(4-(2-cyclopropylethoxy)phenyl)propyl)-5-ethyl-2-methylpiperazin-1-yl)-1-methyl-2-oxo-1,2-dihydropyrido[3,2-d]pyrimidine-6-carbonitrile]
[1]; [7]
  pIC50: 4.80
[2]; [8]
  pIC50: 5.20
[3]
  pEC50: 4.89

## CCC(c1ccc(OCCC(F)(F)F)cc1)N1C[C@H](C)N(c2nc(=O)n(C)c3ccc(C#N)nc23)C[C@H]1CC (single isomer, unassigned) [Example 335]
[1]; [7]
  pIC50: 6.92
[2]; [8]
  pIC50: 7.60
[3]
  pEC50: 6.85

## CCC(c1ccc(OCC2CCOCC2)cc1)N1C[C@H](C)N(c2nc(=O)n(C)c3ccc(C#N)nc23)C[C@H]1CC (stereo partly drawn) [Example 338, 4-((2S,5R)-5-ethyl-2-methyl-4-(1-(4-((tetrahydro-2H-pyran-4-yl)methoxy)phenyl)propyl)piperazin-1-yl)-1-methyl-2-oxo-1,2-dihydropyrido[3,2-d]pyrimidine-6-carbonitrile]
[1]; [7]
  pIC50: 5.88
[2]; [8]
  pIC50: 6.04
[3]
  pEC50: 4.70

## CCC(c1c(F)cc(OCC2CC2)cc1F)N1C[C@H](C)N(c2nc(=O)n(C)c3ccc(C#N)nc23)C[C@H]1CC (stereo partly drawn) [Example 327, 4-((2S,5R)-4-(1-(4-(cyclopropylmethoxy)-2,6-difluorophenyl)propyl)-5-ethyl-2-methylpiperazin-1-yl)-1-methyl-2-oxo-1,2-dihydropyrido[3,2-d]pyrimidine-6-carbonitrile]
[1]; [7]
  pIC50: 7.24
[2]; [8]
  pIC50: 6.49
[3]
  pEC50: 5.68

## CC[C@H]1CN(C(C)c2ccc(C(F)(F)F)cc2)[C@H](CC)CN1c1nc(=O)n(C)c2ccc(C(F)F)nc12 (stereo partly drawn) [Example 439, 4-((2S,5R)-2,5-Diethyl-4-(1-(4-(trifluoromethyl)phenyl)ethyl)piperazin-1-yl)-6-(difluoromethyl)-1-methylpyrido[3,2-d]pyrimidin-2(1H)-one]
[1]; [7]
  pIC50: 6.40
[2]; [8]
  pIC50: 6.44
[3]
  pEC50: 4.96

## CCC[C@@H]1CN(c2nc(=O)n(C)c3ccc(C#N)nc23)[C@@H](C)CN1C(C)c1ccc(C(F)(F)F)cc1 (single isomer, unassigned) [Example 395]
[2]; [8]
  pIC50: 6.31
[3]
  pEC50: 4.70

## CC[C@@H]1CN(c2nc(=O)n(C)c3ccc(C#N)nc23)[C@@H](C)CN1C(C)c1ccc(C2(C#N)CC2)cc1 (stereo partly drawn) [Example 326, 4-((2S,5R)-4-(1-(4-(1-cyanocyclopropyl)phenyl)ethyl)-5-ethyl-2-methylpiperazin-1-yl)-1-methyl-2-oxo-1,2-dihydropyrido[3,2-d]pyrimidine-6-carbonitrile]
[3]
  pEC50: 5.46

## CCOc1ccc2c(n1)c(N1C[C@@H](CC)N(C(C)c3ccc(C(F)(F)F)cc3)C[C@@H]1CC)nc(=O)n2C (stereo partly drawn) [Example 430, 4-((2S,5R)-2,5-diethyl-4-(1-(4-(trifluoromethyl)phenyl)ethyl)piperazin-1-yl)-6-ethoxy-1-methylpyrido[3,2-d]pyrimidin-2(1H)-one]
[1]; [7]
  pIC50: 3.90
[4]; human whole blood, anti-CD3 plus anti-CD28 stimulation, 24 hours, read-out: IFN-γ Whole Blood EC50
  pEC50: 4.70
[3]
  pEC50: 4.70

## CC[C@H]1CN(C(C)c2ccc(C(F)(F)F)cc2)[C@H](CC)CN1c1nc(=O)n(C)c2ccc(OCCOC)nc12 (stereo partly drawn) [Example 434, 4-((2S,5R)-2,5-diethyl-4-(1-(4-(trifluoromethyl)phenyl)ethyl)piperazin-1-yl)-6-(2-methoxyethoxy)-1-methylpyrido[3,2-d]pyrimidin-2(1H)-one]
[3]
  pEC50: 4.70

## C[C@@H]1CN(c2nc(=O)n(C)c3ccc(C#N)nc23)[C@@H](C)CN1C(c1ccc(F)cc1)C12CC(C(F)(F)F)(C1)C2 (stereo partly drawn) [Example 451, 4-((2S,5R)-4-((4-fluorophenyl)(3-(trifluoromethyl)bicyclo[1.1.1]pentan-1-yl)methyl)-2,5-dimethylpiperazin-1-yl)-1-methyl-2-oxo-1,2-dihydropyrido[3,2-d]pyrimidine-6-carbonitrile]
[3]
  pEC50: 4.70

## CCC(c1ccc(OC(F)(F)F)cc1)N1C[C@H](C)N(c2nc(=O)n(C)c3ccc(C#N)nc23)C[C@H]1CC (single isomer, unassigned) [Example 84]
[5]
  pIC50: 5.49
[1]; [9]
  pIC50: 5.68
[2]; [10]
  pIC50: 7.27
[4]; [11]
  pEC50: 6.17
[6]
  pIC50: 6.11

## CC[C@@H]1CN(c2nc(=O)n(C)c3ccc(C#N)nc23)[C@@H](C)CN1C(c1ccc(F)cc1)c1nc(C2CC2)no1 (stereo partly drawn) [Example 113, 4-((2S,5R)-4-((3-cyclopropyl-1,2,4-oxadiazol-5-yl)(4-fluorophenyl)methyl)-5-ethyl-2-methylpiperazin-1-yl)-1-methyl-2-oxo-1,2-dihydropyrido[3,2-d]pyrimidine-6-carbonitrile]
[5]
  pIC50: 7.33
[1]; [9]
  pIC50: 7.34
[2]; [10]
  pIC50: 8.00
[4]; [11]
  pEC50: 7.24
[6]
  pIC50: 6.77

## CC[C@@H]1CN(c2nc(=O)n(C)c3ccc(C#N)nc23)[C@@H](C)CN1C(C)c1ccc(C(F)(F)F)c(CN2CCCCC2)c1 (stereo partly drawn) [Example 354, 4-((2S,5R)-5-ethyl-2-methyl-4-(1-(3-(piperidin-1-ylmethyl)-4-(trifluoromethyl)phenyl)ethyl)piperazin-1-yl)-1-methyl-2-oxo-1,2-dihydropyrido[3,2-d]pyrimidine-6-carbonitrile]
[1]; [7]
  pIC50: 6.19
[3]
  pEC50: 5.10

## CC[C@H]1CN(C(C)c2ccc(C(F)(F)F)cc2F)[C@H](CC)CN1c1nc(=O)n(C)c2ccc(C#N)nc12 (single isomer, unassigned) [Example 26]
[5]
  pIC50: 7.09
[1]; [9]
  pIC50: 6.68
[2]; [10]
  pIC50: 7.54
[4]; [11]
  pEC50: 6.74
[6]
  pIC50: 6.62

## CCC(c1ccc(OC(F)(F)F)cc1)N1C[C@H](C)N(c2nc(=O)n(C)c3ccc(C#N)nc23)C[C@H]1CC (single isomer, unassigned) [Example 83]
[5]
  pIC50: 7.01
[1]; [9]
  pIC50: 6.80
[2]; [10]
  pIC50: 7.82
[4]; [11]
  pEC50: 7.77
[6]
  pIC50: 7.06

## C[C@@H]1CN(c2nc(=O)n(C)c3ccc(C#N)nc23)[C@@H](C)CN1C(c1ccc(F)cc1)C12CC(C(F)(F)F)(C1)C2 (stereo partly drawn) [Example 452, 4-((2S,5R)-4-((4-fluorophenyl)(3-(trifluoromethyl)bicyclo[1.1.1]pentan-1-yl)methyl)-2,5-dimethylpiperazin-1-yl)-1-methyl-2-oxo-1,2-dihydropyrido[3,2-d]pyrimidine-6-carbonitrile]
[3]
  pEC50: 4.70

## CC[C@@H]1CN(c2nc(=O)n(C)c3ccc(C#N)nc23)[C@@H](C)CN1C(C)c1ccc(C(F)(F)F)c(CN2CCCCC2)c1 (stereo partly drawn) [Example 355, 4-((2S,5R)-5-ethyl-2-methyl-4-(1-(3-(piperidin-1-ylmethyl)-4-(trifluoromethyl)phenyl)ethyl)piperazin-1-yl)-1-methyl-2-oxo-1,2-dihydropyrido[3,2-d]pyrimidine-6-carbonitrile]
[1]; [7]
  pIC50: 4.38
[3]
  pEC50: 5.17

## CC[C@@H]1CN(c2nc(=O)n(C)c3ccc(C#N)nc23)[C@@H](C)CN1C(c1ccc(OC(F)(F)F)cc1)c1cc(C2CC2)on1 (single isomer, unassigned) [Example 100]
[5]
  pIC50: 6.60
[1]; [9]
  pIC50: 6.96
[2]; [10]
  pIC50: 7.96
[4]; Homo sapiens, whole blood, normalized to 3 μM reference compound as 100% activation, read-out: IFN-γ Whole Blood Normalized EC50
  pEC50: 7.36
[6]
  pIC50: 6.49
